# Patent publication US9382197B2, “Substituted hydroxamic acids and uses thereof” (Millennium Pharmaceuticals, Inc., priority 2010, dated 2016)
# Target: T1, purified human HDAC6 (Homo sapiens, UniProt Q9UBN7)
# T1 construct: purchased BPS Bioscience 5006
# T1 sequence (Q9UBN7 1-1215): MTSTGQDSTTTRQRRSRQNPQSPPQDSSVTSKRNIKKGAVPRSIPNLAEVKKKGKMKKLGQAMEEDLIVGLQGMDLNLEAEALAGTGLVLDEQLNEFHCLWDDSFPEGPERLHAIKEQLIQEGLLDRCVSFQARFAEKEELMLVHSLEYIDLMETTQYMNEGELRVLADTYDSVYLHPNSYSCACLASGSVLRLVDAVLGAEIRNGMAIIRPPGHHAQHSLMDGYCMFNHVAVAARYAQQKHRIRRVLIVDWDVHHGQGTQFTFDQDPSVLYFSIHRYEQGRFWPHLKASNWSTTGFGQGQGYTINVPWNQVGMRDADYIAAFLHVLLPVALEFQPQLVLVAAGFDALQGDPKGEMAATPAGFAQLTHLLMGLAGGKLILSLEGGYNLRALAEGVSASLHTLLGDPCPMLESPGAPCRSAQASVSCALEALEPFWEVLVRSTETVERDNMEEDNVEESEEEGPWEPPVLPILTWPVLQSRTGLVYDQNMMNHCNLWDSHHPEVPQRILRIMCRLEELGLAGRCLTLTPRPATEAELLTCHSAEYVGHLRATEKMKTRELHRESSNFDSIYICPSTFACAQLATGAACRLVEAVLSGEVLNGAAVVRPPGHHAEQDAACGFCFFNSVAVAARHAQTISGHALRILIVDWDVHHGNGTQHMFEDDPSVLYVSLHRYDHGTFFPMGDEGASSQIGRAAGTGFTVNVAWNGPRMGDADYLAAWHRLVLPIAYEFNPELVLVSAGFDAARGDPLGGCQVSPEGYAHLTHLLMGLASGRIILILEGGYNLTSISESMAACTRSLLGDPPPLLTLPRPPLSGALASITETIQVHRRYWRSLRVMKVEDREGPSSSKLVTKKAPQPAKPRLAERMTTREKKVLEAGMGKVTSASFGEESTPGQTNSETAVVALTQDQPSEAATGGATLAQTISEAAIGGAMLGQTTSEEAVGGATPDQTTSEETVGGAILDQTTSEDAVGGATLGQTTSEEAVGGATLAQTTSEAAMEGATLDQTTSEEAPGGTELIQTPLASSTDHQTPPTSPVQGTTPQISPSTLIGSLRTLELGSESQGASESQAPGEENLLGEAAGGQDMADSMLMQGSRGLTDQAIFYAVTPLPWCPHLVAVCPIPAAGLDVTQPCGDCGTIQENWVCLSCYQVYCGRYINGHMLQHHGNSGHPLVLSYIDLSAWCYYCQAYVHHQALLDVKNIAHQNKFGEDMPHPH
# Assay: HDAC6 Enzyme Assay
# Assay type: biochemical
# Conditions: bin: greater than 500 nM and less than 1 μM (lower bound in nM, upper bound in μM)
# Procedure, shortened: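 Purified human HDAC6 incubated 1 h at 30 °C with Ac-Arg-Gly-Lys(Ac)-AMC and compound; trichostatin A stop, trypsin release of AMC, fluorescence Ex 340/Em 460 nm. IC50 from concentration–response relative to DMSO.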
row,IC50 [nM],Structure (SMILES)
1,500 to 1000,"Cc1cc(C)c(CC(=O)NC(c2ccc(C(=O)NO)cc2)C(C)C)c(C)c1 (stereo not drawn) [Compound I-28, N-hydroxy-4-{1-[(mesitylacetyl)amino]-2-methylpropyl}benzamide]"
2,500 to 1000,"Cc1cc(C(=O)NC(C)c2cccc(C(=O)NO)c2)c(C)[nH]1 (stereo not drawn) [Compound I-181, N-(1-{3-[(hydroxyamino)carbonyl]phenyl}ethyl)-2,5-dimethyl-1H-pyrrole-3-carboxamide]"
3,500 to 1000,"C[C@@H](NS(=O)(=O)c1ccc(C(F)(F)F)cc1)c1ccc(C(=O)NO)cc1 [Compound I-351, N-hydroxy-4-[(1R)-1-({[4-(trifluoromethyl)phenyl]sulfonyl}amino)ethyl]benzamide]"

# Same assay, conditions: bin: greater than 1 μM
row,IC50 [nM],Structure (SMILES)
1,> 1000,"COc1ccc(CCCC(=O)NC(C)c2ccc(C(=O)NO)cc2)cc1 (stereo not drawn) [Compound I-70, N-hydroxy-4-(1-{[4-(4-methoxyphenyl)butanoyl]amino}ethyl)benzamide]"
2,> 1000,"Cc1nn(C)cc1C(=O)NC(C)c1cccc(C(=O)NO)c1 (stereo not drawn) [Compound I-167, N-(1-{3-[(hydroxyamino)carbonyl]phenyl}ethyl)-1,3-dimethyl-1H-pyrazole-4-carboxamide]"
3,> 1000,"CC(NC(=O)c1cccn1C)c1cccc(C(=O)NO)c1 (stereo not drawn) [Compound I-263, N-(1-{3-[(hydroxyamino)carbonyl]phenyl}ethyl)-1-methyl-1H-pyrrole-2-carboxamide]"
4,> 1000,"CCC[C@@H](NS(=O)(=O)c1ccc(C(F)(F)F)cc1)c1ccc(C(=O)NO)cc1 [Compound I-171, N-hydroxy-4-[(1R)-1-({[4-(trifluoromethyl)phenyl]sulfonyl}amino)butyl]benzamide]"
5,> 1000,"Cc1cc(C(=O)NC(C)c2ccc(C(=O)NO)cc2)nn1C (stereo not drawn) [Compound I-241, N-(1-{4-[(hydroxyamino)carbonyl]phenyl}ethyl)-1,5-dimethyl-1H-pyrazole-3-carboxamide]"
6,> 1000,"CC(NC(=O)c1c(Cl)cccc1Cl)c1cccc(C(=O)NO)c1 (stereo not drawn) [Compound I-366, 2,6-dichloro-N-(1-{3-[(hydroxyamino)carbonyl]phenyl}ethyl)benzamide]"
7,> 1000,"CC(NC(=O)c1csc2ccccc12)c1ccc(C(=O)NO)cc1 (stereo not drawn) [Compound I-244, N-(1-{4-[(hydroxyamino)carbonyl]phenyl}ethyl)-1-benzothiophene-3-carboxamide]"
8,> 1000,"Cn1nc2c(c1C(=O)NC(c1ccc(C(=O)NO)cc1)C(C)(C)C)CCCC2 (stereo not drawn) [Compound I-211, N-(1-{4-[(hydroxyamino)carbonyl]phenyl}-2,2-dimethylpropyl)-2-methyl-4,5,6,7-tetrahydro-2H-indazole-3-carboxamide]"

# Same assay, conditions: purified human HDAC6, substrate Ac-Arg-Gly-Lys(Ac)-AMC, 1 hour at 30° C.; reported as bins
row,IC50 [nM],Structure (SMILES)
1,< 100,"CC(C)(C)C(NC(=O)c1cc2ccccc2o1)c1ccc(C(=O)NO)cc1 (stereo not drawn) [Compound I-4, N-(1-{4-[(hydroxyamino)carbonyl]phenyl}-2,2-dimethylpropyl)-1-benzofuran-2-carboxamide]"
2,< 100,"CC(C)[C@@H](NC(=O)NCCc1ccccc1)c1ccc(C(=O)NO)cc1 [Compound I-522, N-hydroxy-4-[(1R)-2-methyl-1-({[(2-phenylethyl)amino]carbonyl}amino)propyl]benzamide]"
3,< 100,"CCC[C@@H](NC(=O)NC12CC3CC(CC(C3)C1)C2)c1ccc(C(=O)NO)cc1 [Compound I-18, 4-[(1R)-1-({[1-adamantylamino]carbonyl}amino)butyl]-N-hydroxybenzamide]"
4,< 100,"Cc1ccc(NC(=O)NC(C)c2ccc(C(=O)NO)cc2)cc1C (stereo not drawn) [Compound I-55, 4-[1-({[(3,4-dimethylphenyl)amino]carbonyl}amino)ethyl]-N-hydroxybenzamide]"
5,< 100,"CC(NC(=O)c1ccccc1Cl)c1ccc(C(=O)NO)cc1 (stereo not drawn) [Compound I-269, 2-chloro-N-(1-{4-[(hydroxyamino)carbonyl]phenyl}ethyl)benzamide]"
6,100 to 500,"CC(C)C(NC(=O)C1CCCCC1)c1ccc(C(=O)NO)cc1 (stereo not drawn) [Compound I-344, 4-{1-[(cyclohexylcarbonyl)amino]-2-methylpropyl}-N-hydroxybenzamide]"
7,< 100,"CC(NC(=O)Nc1cccc2nsnc12)c1ccc(C(=O)NO)cc1 (stereo not drawn) [Compound I-293, 4-(1-{[(2,1,3-benzothiadiazol-4-ylamino)carbonyl]amino}ethyl)-N-hydroxybenzamide]"
8,< 100,"CC(NC(=O)c1ccc2c(c1)OCO2)c1ccc(C(=O)NO)cc1 (stereo not drawn) [Compound I-297, N-(1-{4-[(hydroxyamino)carbonyl]phenyl}ethyl)-1,3-benzodioxole-5-carboxamide]"
9,< 100,"COc1ccc(C(=O)NC(c2ccc(C(=O)NO)cc2)C(C)C)cc1 (stereo not drawn) [Compound I-346, N-(1-{4-[(hydroxyamino)carbonyl]phenyl}-2-methylpropyl)-4-methoxybenzamide]"
10,100 to 500,"CC(C)C(NC(=O)C1(c2ccc(Cl)cc2)CC1)c1ccc(C(=O)NO)cc1 (stereo not drawn) [Compound I-300, 4-[1-({[1-(4-chlorophenyl)cyclopropyl]carbonyl}amino)-2-methylpropyl]-N-hydroxybenzamide]"
11,< 100,"CCC[C@@H](NC(=O)C1(C)CCCCC1)c1ccc(C(=O)NO)cc1 [Compound I-387, N-hydroxy-4-((1R)-1-{[(1-methylcyclohexyl)carbonyl]amino}butyl)benzamide]"
12,< 100,"CC(C)C(NC(=O)c1cc(F)c(F)cc1F)c1ccc(C(=O)NO)cc1 (stereo not drawn) [Compound I-116, 2,4,5-trifluoro-N-(1-{4-[(hydroxyamino)carbonyl]phenyl}-2-methylpropyl)benzamide]"
13,< 100,"CC(NC(=O)C1=Cc2ccccc2OC1)c1ccc(C(=O)NO)cc1 (stereo not drawn) [Compound I-224, N-(1-{4-[(hydroxyamino)carbonyl]phenyl}ethyl)-2H-chromene-3-carboxamide]"
14,100 to 500,"Cc1cc(C(=O)NO)ccc1C(C)NC(=O)c1cc2ccccc2s1 (stereo not drawn) [Compound I-485, N-(1-{4-[(hydroxyamino)carbonyl]-2-methylphenyl}ethyl)-1-benzothiophene-2-carboxamide]"
15,100 to 500,"CC(NC(=O)c1c2c(nn1C)CCCC2)c1ccc(C(=O)NO)cc1 (stereo not drawn) [Compound I-114, N-(1-{4-[(hydroxyamino)carbonyl]phenyl}ethyl)-2-methyl-4,5,6,7-tetrahydro-2H-indazole-3-carboxamide]"
16,< 100,"CCC[C@@H](NC(=O)c1cccn1C)c1ccc(C(=O)NO)cc1 [Compound I-281, N-((1R)-1-{4-[(hydroxyamino)carbonyl]phenyl}butyl)-1-methyl-1H-pyrrole-2-carboxamide]"
17,100 to 500,"CC(C)C(NC(=O)C1(c2ccccc2)CCCC1)c1ccc(C(=O)NO)cc1 (stereo not drawn) [Compound I-258, N-hydroxy-4-(2-methyl-1-{[(1-phenylcyclopentyl)carbonyl]amino}propyl)benzamide]"
18,< 100,"Cc1c(C(=O)N[C@@H](c2ccc(C(=O)NO)cc2)C(C)C)sc2ccccc12 [Compound I-307, N-((1R)-1-{4-[(hydroxyamino)carbonyl]phenyl}-2-methylpropyl)-3-methyl-1-benzothiophene-2-carboxamide]"
19,100 to 500,"Cc1cc(C(=O)NC(c2ccc(C(=O)NO)cc2)C(C)(C)C)c(C)[nH]1 (stereo not drawn) [Compound I-310, N-(1-{4-[(hydroxyamino)carbonyl]phenyl}-2,2-dimethylpropyl)-2,5-dimethyl-1H-pyrrole-3-carboxamide]"
20,< 100,"CC(NC(=O)c1ccc(C(C)(C)C)cc1)c1ccc(C(=O)NO)cc1 (stereo not drawn) [Compound I-350, 4-tert-butyl-N-(1-{4-[(hydroxyamino)carbonyl]phenyl}ethyl)benzamide]"
21,< 100,"CCC[C@@H](NC(=O)C12CC3CC(CC(C3)C1)C2)c1ccc(C(=O)NO)cc1 [Compound I-15, N-((1R)-1-{4-[(hydroxyamino)carbonyl]phenyl}butyl)adamantane-1-carboxamide]"
22,100 to 500,"CC(NC(=O)C1C(C)(C)C1(C)C)c1ccc(C(=O)NO)cc1 (stereo not drawn) [Compound I-372, N-hydroxy-4-(1-{[(2,2,3,3-tetramethylcyclopropyl)carbonyl]amino}ethyl)benzamide]"
